Here are results for 1 substance from patent US9956426B2, “Upconverting nanoparticles” (priority 2015, dated 2018).

In data set [1] the test system is singlet oxygen production in HeLa cells. Description: Singlet oxygen detection by DCFDA fluorescence (imaging and plate reader). It counts as cell-based. The conditions noted are these: 100 μg/mL, CW 980 nm 1 W/cm^2, 0, 5, 10 min irradiation. An excerpt: To investigate the mechanism of the results from the above mentioned experiments, cells were stained with 2′,7′-dichlorofluorescein diacetate (DCFDA), a fluorescent indicator for singlet oxygen generation, and imaged using fluorescence microscopy. When DCFDA diffuses into the cell it is […] into a non-fluorescent compound by cellular esterases. Reactive oxygen species (ROS) oxidize the non-fluorescent compound to 2′, 7′-dichlorofluorescein (DCF), which has bright green fluorescence. […] See images (a), (b) and (c) of FIG. 10. […] See images (d), (e) and (f) of FIG. 10. The data were corroborated by quantifying the singlet oxygen production by measuring the fluorescence intensity of the DCFDA using 96-well microtiter plate reader. Both DCFDA fluorescence imaging and microtiter plate measurement indicate effective prodrug delivery and subsequent PpIX activation by the red-emitting upconverting nanoparticles provided by the present disclosure.
Glass-bottom confocal dishes seeded with 1×10^6 HeLa cells were incubated overnight at 37° C. with 5% CO2. […]
FIGS. 10(a), 10(b), 10(c), 10(d), 10(e) and 10(f). Fluorescence microscopy images showing detection of singlet oxygen production in cells by the fluorescence of DCFDA.

Data set [2] is described as follows: Hydrodynamic size by dynamic light scattering. The format is physicochemical. The settings on record: dynamic light scattering in PBS. How it is done:
Dynamic light scattering was used to determine that the hydrodynamic size of the 5-ALA-conjugated nanoparticles was about 62 nm as shown in FIG. 6.
(§1) FT-IR spectra were recorded on a Nicolet Nexus FT-IR spectrometer, using the SMART iTR™ for ATR measurements. The upconversion photoluminescence spectra were measured by a SPEX FluoroMax®-3 spectrofluorimeter (Horiba) (spectral resolution of 1 nm, emission slit of 5 nm, and integral period of 0.1 s) excited at 980 nm using a fiber-coupled laser diode introduced to the sample chamber of the spectrofluorimeter. Cells were imaged using a Nikon Eclipse TE 2000 microscope, equipped with a Nuance CCD camera capable of imaging. The light source was a fiber-coupled laser diode emitting at 980 nm, with the fiber introduced through the entrance port of the microscope. The size distribution of the samples was determined by dynamic light scattering (DLS) equipped with a Zetasizer Nano-ZS (He—Ne laser wavelength at 633 nm) and an auto-titrator (Malvern Instruments, Malvern, UK). The absorbance for the MTT experiment and the fluorescence for DCFDA staining experiment was found using a microplate reader (Molecular Devices Co., Menlo Park, Calif.). 5-ALA concentration was monitored by HPLC (Varian ProStar) for loading efficiency data.

The nature of data set [3]: 5-Aminolevulinic acid loading determination by HPLC. It counts as physicochemical. The conditions noted are these: HPLC of supernatants, back-calculation.
Description: FT-IR spectral analysis confirmed that the conjugation of 5-ALA to the nanoparticles was via a hydrazone linkage as shown in panels (d) and (e) of FIG. 7, which show (d) full and (e) detailed spectra for polyacrylic acid-coated upconverting nanoparticles, (PAA-UCNPs), hydrazide-functionalized upconverting nanoparticles (Hyd-UCNPs) and 5-ALA-conjugated upconverting nanoparticles. On the spectrum for Poly(acrylic) acid-functionalized UCNPs (PAA-UCNPs), the peak at 1636 cm^−1 is attributed to the resonance of the carboxyl groups. […]
as §1, with “Cells were imaged using a Nikon Eclipse TE 2000 microscope, equipped with a Nuance CCD camera capable of imaging. The light source was a fiber-coupled laser diode emitting at 980 nm, with the fiber introduced through the entrance port of the microscope.” left out, “5-ALA concentration was monitored by HPLC (Varian ProStar) for loading efficiency data.” left out

Data set [4] relates to 4T1 tumors. Description: In vivo deep tumor photodynamic therapy treatment, tumor volume. Also noted: species or system Balb/c mice. The settings on record: intratumoral. The procedure:
In vivo testing was conducted in subcutaneous tumors grown on Balb/c mice models to evaluate the effect of photodynamic therapy treatment using the upconversion nanoparticles described herein. The tumor volume reduction effect of a red light laser ranging from ˜635-685 nm (PpIX's activation region) and 980 nm light irradiation (activation wavelength of the upconverting nanoparticles described herein) was compared at a biocompatible level of 0.5 W/cm^2.
Female Balb/c mice were purchased from Nanjing Peng Sheng Biological Technology Co. Ltd. and used under protocols approved by Soochow University Laboratory Animal Center. 4T1 cells (1×10^6) suspended in 40 μL of PBS were subcutaneously injected into the back of each female Balb/c mouse. After about 6 days, the mice bearing 4T1 tumors were treated when the tumor volume reached about 50 mm^3.
An optical fiber-coupled 980 nm high power laser diode (Hi-Tech Optoelectronics Co., Ltd. Beijing, China) was used to irradiate tumors at a power density of about 0.5 W/cm^2 for 40 min. (1 min. interval after each minute of irradiation). The tumor sizes were measured by a caliper every other day and calculated as the volume (tumor length)×(tumor width)^2/2. The body weight of mice was also measured with every tumor measurement and percent change was calculated by the formula (observed body weight)/(body weight on day 0)×100%.
FIGS. 14(a) and 14(b). FIG. 14(a): Plots of the in vivo volume of tumors exposed to various controls and ALAUCNPs with red and near-infrared irradiation (0.5 W/cm^2) in simulated deep tumors. […] Statistical significance was determined from one-way t tests; significance (*) was based on p<0.05 and p>0.05 for not significant (**) pairs. There was no statistical difference between treatments with ALA-UCNPs with no pork whether red or near infra-red light was used. […] FIG. 14(b) is a diagram of in vivo photodynamic therapy treatment with red or near infra-red light conducted inserting pork tissue between the laser and the mice tumors to simulate treatment of deep tumors.

“α-NaYF4:Yb(80%),Er(2%)@CaF2 ALA [ALA-UCNPs]”: in data set [1], the “DCFDA fluorescence (singlet oxygen generation)” value is given as “intensifying DCFDA fluorescence over irradiation time”. Further, the hydrodynamic size result in data set [2] was “about 62 nm”. Besides, the “loading capacity for 5-ALA” value in data set [3] is “about 4.5 μmol/mg”. Further, in data set [4] (0.5 W/cm^2), the “tumor reduction, 980 nm light with 12 mm pork versus red light with 6 mm pork” value was “significantly more effective”. Moreover, the “tumor volume, treatment with NIR versus red light” value in data set [4] (0.5 W/cm^2, no pork) was “no statistically significant difference”. Moreover, the tumor reduction result in data set [4] (980 nm 0.5 W/cm^2, 6 or 12 mm of pork tissue above the tumor) was “about 150 mm^3”. Moreover, the therapeutic effect entry in data set [4] (red light irradiation 0.5 W/cm^2, pork tissue above the tumor) was “no noticeable therapeutic effect”.
